Results as given in patent US20240174714A1, “TREATMENT OF SKIN DISORDERS” (priority 2021, published 2024).
Where two headings read alike, the source gives them in different places. Square brackets hold non-standard residues; d marks the D form. Peptide text beside a SMILES is read from it. * marks the point of attachment. Benzoyl(4-CF3) = O=C(c1ccc(C(F)(F)F)cc1)*; NH((S)CH(Me)CH2NMe2) = C[C@@H](CN(C)C)N*; NH(1-CH2NMe2-cBu) = CN(C)CC1(N*)CCC1; Benzoyl(4-OMe) = COc1ccc(C(=O)*)cc1; Gly(octyl) = CCCCCCCC[C@H](N)C(=O)O; Oxazole4CO(2-Me) = Cc1nc(C(=O)*)co1; Thiophene2carbonyl = O=C(c1cccs1)*; d(hCha) = N[C@H](CCC1CCCCC1)C(=O)O; X4 = COc1ccc2cc(C(=O)*)c(=O)oc2c1; Benzoyl(4-F) = O=C(c1ccc(F)cc1)*; hCha = N[C@@H](CCC1CCCCC1)C(=O)O; X7 = O=C(c1ccc2[nH]ccc2c1)*; X3 = C[C@@H](CN1CCOCC1)N*; X9 = O=C(c1ccc2ocnc2c1)*; Aib = CC(C)(N)C(=O)O; Bz = O=C(c1ccccc1)*; βAla = NCCC(=O)O

Assays:
[1] = system: intracellular Leishmania donovani MHOM-ET-67/L82 amastigotes; experiment: In vitro antiprotozoal assay, intracellular amastigotes; type: cell-based; details: intracellular amastigotes; read-out: L.don.InMac IC50
Method: (§1) The testing of the inventive compounds against Leishmania donovani (strain MHOM/ET/67/L82) was performed in 96 well plates at concentrations in serial dilutions. Tests were done in triplicate.

[2] = system: axenic Leishmania donovani MHOM-ET-67/L82 amastigotes; experiment: In vitro antiprotozoal assay, axenic amastigotes; type: cell-based
Method: as §1

[3] = Cytotoxicity assay (Alamar Blue) on L6-cells; type: cell-based, rat
Method: Tests were done in triplicate.
The plates were incubated for additional 2 h.

[4] = axenic amastigotes, read-out: L.don.ax. IC50
[5] = rat myoblast L6 cells, read-out: Cytotox L6 IC50

In the case of CCCCCCCC[C@H](NC(=O)[C@@H]1CCCN1C(=O)c1ccccc1)C(=O)N[C@@H](CC(C)C)C(=O)NC(C)(C)C(=O)N[C@@H](CC(C)C)C(=O)N[C@@H](CC(C)C)C(=O)NC(C)(C)C(=O)NC(C)(C)C(=O)NCCC(=O)N[C@@H](C)CN(C)C [Compound 5649, (2S)-2-{[(2S)-1-benzoylpyrrolidin-2-yl]formamido}-N-[(1S)-1-[(1-{[(1S)-1-{[(1S)-1-{[1-({1-[(2-{[(2S)-1-(dimethylamino)propan-2-yl]carbamoyl}ethyl)carbamoyl]-1-methylethyl}carbamoyl)-1-methylethyl]carbamoyl}-3-methylbutyl]carbamoyl}-3-methylbutyl]carbamoyl}-1-methylethyl)carbamoyl]-3-methylbutyl]decanamide] (Bz-P[Gly(octyl)]L[Aib]LL[Aib][Aib][βAla]-{NH((S)CH(Me)CH2NMe2)}), the IC50 [1] is reported as 27.2 nM, the IC50 [2, 4] is reported as 3.5 nM and the IC50 at 68 h [3, 5] is reported as 274 nM.
CCCCCCCC[C@H](NC(=O)[C@@H]1CCCN1C(=O)c1ccc(C(F)(F)F)cc1)C(=O)N[C@@H](CC(C)C)C(=O)NC(C)(C)C(=O)N[C@@H](CC(C)C)C(=O)N[C@@H](CC(C)C)C(=O)NC(C)(C)C(=O)NC(C)(C)C(=O)NCCC(=O)N[C@@H](C)CN(C)C [Compound 5936, (2S)-N-[(1S)-1-[(1-{[(1S)-1-{[(1S)-1-{[1-({1-[(2-{[(2S)-1-(dimethylamino)propan-2-yl]carbamoyl}ethyl)carbamoyl]-1-methylethyl}carbamoyl)-1-methylethyl]carbamoyl}-3-methylbutyl]carbamoyl}-3-methylbutyl]carbamoyl}-1-methylethyl)carbamoyl]-3-methylbutyl]-2-{[(2S)-1-[4-(trifluoromethyl)benzoyl]pyrrolidin-2-yl]formamido}decanamide] ({Benzoyl(4-CF3)}-P[Gly(octyl)]L[Aib]LL[Aib][Aib][βAla]-{NH((S)CH(Me)CH2NMe2)}) showed an IC50 [1] of under 33.2 nM, an IC50 [2, 4] of 3.3 nM and an IC50 at 68 h ([3]; rat) of 411 nM.
Cc1nc(C(=O)N2CCC[C@@H]2C(=O)N[C@H](CCC2CCCCC2)C(=O)N[C@H](CC(C)C)C(=O)NC(C)(C)C(=O)N[C@H](CC(C)C)C(=O)N[C@H](CC(C)C)C(=O)NC(C)(C)C(=O)NC(C)(C)C(=O)NCCC(=O)NC2(CN(C)C)CCC2)co1 [Compound 7050, (2R)-2-[(2R)-4-cyclohexyl-2-{[(2R)-1-(2-methyl-1,3-oxazole-4-carbonyl)pyrrolidin-2-yl]formamido}butanamido]-N-(1-{[(1R)-1-{[(1R)-1-({1-[(1-{[2-({1-[(dimethylamino)methyl]cyclobutyl}carbamoyl)ethyl]carbamoyl}-1-methylethyl)carbamoyl]-1-methylethyl}carbamoyl)-3-methylbutyl]carbamoyl}-3-methylbutyl]carbamoyl}-1-methylethyl)-4-methylpentanamide] ({Oxazole4CO(2-Me)}-[dP][d(hCha)][dL][Aib][dL][dL][Aib][Aib][βAla]-{NH(1-CH2NMe2-cBu)}) gave an IC50 [1] of 43.7 nM, an IC50 [2, 4] of 5.1 nM and an IC50 at 68 h ([3]; rat) of 4970 nM.
Molecule CCCCCCCC[C@H](NC(=O)[C@@H]1CCCN1C(=O)c1ccc2[nH]ccc2c1)C(=O)N[C@@H](CC(C)C)C(=O)NC(C)(C)C(=O)N[C@@H](CC(C)C)C(=O)N[C@@H](CC(C)C)C(=O)NC(C)(C)C(=O)NC(C)(C)C(=O)NCCC(=O)N[C@@H](C)CN(C)C [Compound 5911, (2S)—N-[(1S)-1-[(1-{[(1S)-1-{[(1S)-1-{[1-({1-[(2-{[(2S)-1-(dimethylamino)propan-2-yl]carbamoyl}ethyl)carbamoyl]-1-methylethyl}carbamoyl)-1-methylethyl]carbamoyl}-3-methylbutyl]carbamoyl}-3-methylbutyl]carbamoyl}-1-methylethyl)carbamoyl]-3-methylbutyl]-2-{[(2S)-1-(1H-indole-5-carbonyl)pyrrolidin-2-yl]formamido}decanamide] (X7-P[Gly(octyl)]L[Aib]LL[Aib][Aib][βAla]-{NH((S)CH(Me)CH2NMe2)}) has an IC50 [1] of 34.8 nM, an IC50 [2, 4] of 14.4 nM and an IC50 at 68 h ([3]; rat) of 457 nM.
For CCCCCCCC[C@H](NC(=O)[C@@H]1CCCN1C(=O)c1cccs1)C(=O)N[C@@H](CC(C)C)C(=O)NC(C)(C)C(=O)N[C@@H](CC(C)C)C(=O)N[C@@H](CC(C)C)C(=O)NC(C)(C)C(=O)NC(C)(C)C(=O)NCCC(=O)N[C@@H](C)CN(C)C [Compound 5904, (2S)-N-[(1S)-1-[(1-{[(1S)-1-{[(1S)-1-{[1-({1-[(2-{[(2S)-1-(dimethylamino)propan-2-yl]carbamoyl}ethyl)carbamoyl]-1-methylethyl}carbamoyl)-1-methylethyl]carbamoyl}-3-methylbutyl]carbamoyl}-3-methylbutyl]carbamoyl}-1-methylethyl)carbamoyl]-3-methylbutyl]-2-{[(2S)-1-(thiophene-2-carbonyl)pyrrolidin-2-yl]formamido}decanamide] (Thiophene2carbonyl-P[Gly(octyl)]L[Aib]LL[Aib][Aib][βAla]-{NH((S)CH(Me)CH2NMe2)}), the IC50 [1] was 11.4 nM, the IC50 [2, 4] was 3.1 nM and the IC50 at 68 h [3, 5] was 216 nM.
With CCCCCCCC[C@H](NC(=O)[C@@H]1CCCN1C(=O)c1ccc2ocnc2c1)C(=O)N[C@@H](CC(C)C)C(=O)NC(C)(C)C(=O)N[C@@H](CC(C)C)C(=O)N[C@@H](CC(C)C)C(=O)NC(C)(C)C(=O)NC(C)(C)C(=O)NCCC(=O)N[C@@H](C)CN(C)C [Compound 5937, (2S)-2-{[(2S)-1-(1,3-benzoxazole-5-carbonyl)pyrrolidin-2-yl]formamido}-N-[(1S)-1-[(1-{[(1S)-1-{[(1S)-1-{[1-({1-[(2-{[(2S)-1-(dimethylamino)propan-2-yl]carbamoyl}ethyl)carbamoyl]-1-methylethyl}carbamoyl)-1-methylethyl]carbamoyl}-3-methylbutyl]carbamoyl}-3-methylbutyl]carbamoyl}-1-methylethyl)carbamoyl]-3-methylbutyl]decanamide] (X9-P[Gly(octyl)]L[Aib]LL[Aib][Aib][βAla]-{NH((S)CH(Me)CH2NMe2)}) the IC50 [1] was 58.5 nM, the IC50 [2, 4] was 21.2 nM and the IC50 at 68 h ([3]; rat) was 1160 nM.
Molecule CCCCCCCC[C@H](NC(=O)[C@@H]1CCCN1C(=O)c1ccc(OC)cc1)C(=O)N[C@@H](CC(C)C)C(=O)NC(C)(C)C(=O)N[C@@H](CC(C)C)C(=O)N[C@@H](CC(C)C)C(=O)NC(C)(C)C(=O)NC(C)(C)C(=O)NCCC(=O)N[C@@H](C)CN(C)C [Compound 5912, (2S)—N-[(1S)-1-[(1-{[(1S)-1-{[(1S)-1-{[1-({1-[(2-{[(2S)-1-(dimethylamino)propan-2-yl]carbamoyl}ethyl)carbamoyl]-1-methylethyl}carbamoyl)-1-methylethyl]carbamoyl}-3-methylbutyl]carbamoyl}-3-methylbutyl]carbamoyl}-1-methylethyl)carbamoyl]-3-methylbutyl]-2-{[(2S)-1-(4-methoxybenzoyl)pyrrolidin-2-yl]formamido}decanamide] ({Benzoyl(4-OMe)}-P[Gly(octyl)]L[Aib]LL[Aib][Aib][βAla]-{NH((S)CH(Me)CH2NMe2)}) has an IC50 [1] of 12.8 nM, an IC50 [2, 4] of 5.1 nM and an IC50 at 68 h ([3]; rat) of 254 nM.
With CC(C)C[C@H](NC(=O)[C@H](CCC1CCCCC1)NC(=O)[C@@H]1CCCN1C(=O)c1ccc(F)cc1)C(=O)NC(C)(C)C(=O)N[C@@H](CC(C)C)C(=O)N[C@@H](CC(C)C)C(=O)NC(C)(C)C(=O)NC(C)(C)C(=O)NCCC(=O)N[C@@H](C)CN1CCOCC1 [Compound 6028, (2S)-2-[(2S)-2-{2-[(2S)-2-[(2S)-4-cyclohexyl-2-{[(2S)-1-(4-fluorobenzoyl)pyrrolidin-2-yl]formamido}butanamido]-4-methylpentanamido]-2-methylpropanamido}-4-methylpentanamido]-4-methyl-N-[1-methyl-1-({1-methyl-1-[(2-{[(2S)-1-(morpholin-4-yl)propan-2-yl]carbamoyl}ethyl)carbamoyl]ethyl}carbamoyl)ethyl]pentanamide] ({Benzoyl(4-F)}-P[hCha]L[Aib]LL[Aib][Aib][βAla]-X3) the IC50 [1] was 418 nM, the IC50 [2, 4] was 3.3 nM and the IC50 at 68 h ([3]; rat) was 1590 nM.
Work on COc1ccc(C[C@H](NC(=O)[C@@H]2CCCN2C(=O)c2coc(C)n2)C(=O)N[C@@H](CC(C)C)C(=O)NC(C)(C)C(=O)N[C@@H](CC(C)C)C(=O)N[C@@H](CC(C)C)C(=O)NC(C)(C)C(=O)NC(C)(C)C(=O)NCCC(=O)NC2(CN(C)C)CCC2)cc1 [Compound 6896, (2S)-N-(1-{[(1S)-1-{[(1S)-1-({1-[(1-{[2-({1-[(dimethylamino)methyl]cyclobutyl}carbamoyl)ethyl]carbamoyl}-1-methylethyl)carbamoyl]-1-methylethyl}carbamoyl)-3-methylbutyl]carbamoyl}-3-methylbutyl]carbamoyl}-1-methylethyl)-2-[(2S)-3-(4-methoxyphenyl)-2-{[(2S)-1-(2-methyl-1,3-oxazole-4-carbonyl)pyrrolidin-2-yl]formamido}propanamido]-4-methylpentanamide] ({Oxazole4CO(2-Me)}-PY(Me)L[Aib]LL[Aib][Aib][βAla]-{NH(1-CH2NMe2-cBu)}) yielded an IC50 [1] of 1640 nM, an IC50 [2] of 236 nM and an IC50 at 68 h [3, 5] of 8490 nM.
CCCCCCCC[C@H](NC(=O)[C@@H]1CCCN1C(=O)c1cc2ccc(OC)cc2oc1=O)C(=O)N[C@@H](CC(C)C)C(=O)NC(C)(C)C(=O)N[C@@H](CC(C)C)C(=O)N[C@@H](CC(C)C)C(=O)NC(C)(C)C(=O)NC(C)(C)C(=O)NCCC(=O)N[C@@H](C)CN(C)C [Compound 5769, (2S)-N-[(1S)-1-[(1-{[(1S)-1-{[(1S)-1-{[1-({1-[(2-{[(2S)-1-(dimethylamino)propan-2-yl]carbamoyl}ethyl)carbamoyl]-1-methylethyl}carbamoyl)-1-methylethyl]carbamoyl}-3-methylbutyl]carbamoyl}-3-methylbutyl]carbamoyl}-1-methylethyl)carbamoyl]-3-methylbutyl]-2-{[(2S)-1-(7-methoxy-2-oxo-2H-chromene-3-carbonyl)pyrrolidin-2-yl]formamido}decanamide] (X4-P[Gly(octyl)]L[Aib]LL[Aib][Aib][βAla]-{NH((S)CH(Me)CH2NMe2)}) showed an IC50 [1] of 216 nM, an IC50 [2, 4] of 8.1 nM and an IC50 at 68 h ([3]; rat) of 423 nM.
